Reference: US12325676B2, “Cationic lipid compound and composition for delivery of nucleic acids and use thereof” (Shenzhen Rhegen Biotechnology Co., Ltd., priority 2022, dated 2025)

How the values were obtained:
[1] = Encapsulation rate of mRNA-loaded lipid nanoparticles (Ribogreen kit); type: physicochemical
Description: (§1) Luciferase mRNA was diluted in 10-100 mM citrate buffer at pH 4.0; the lipid components (cationic lipids shown in the present disclosure: DSPC:cholesterol:PEG lipids (DMG-PEG2000)) were dissolved in ethanol at a molar ratio of 50:10:38.5:1.5.
(§2) 3 mL of a mRNA buffer and 1 mL of a lipid solution were loaded into two 5 mL syringes respectively, and the syringes were installed on a microfluidic syringe pump. Chips were connected to the syringes and syringe pump flow rate was set. Clicking the start button of the syringe pump caused injection into the chip at a flow rate ratio of 3:1. Under observation of the color of the product at the exit of the chip, after discarding the first 5 milky white droplets (about 100 μL), the back-end sample was collected into an EP tube. The collected product was placed in a dialysis bag and dialyzed for 6 h (MWCO: 100 KDa) in 10 mM PBS (pH 7.4) intervals. Subsequently, after being concentrated by ultrafiltration to the desired concentration, the lipid nanoparticles were filtered through a 0.22 μm sterile filter and then stored at 4° C.
(§3) Tests were performed to calculate the encapsulation rate of the products according to the instructions of Ribogreen kit. Particle size and polydispersity index (PDI) detection as well as zeta potential analysis was performed on a Malvern Zetasizer nano instrument using standard assays.

BALB/c mice [2] = assay: In vivo expression of luciferase mRNA delivered by LNP, tail intravenous injection, small animal imaging; settings: Table 3, 5 μg mRNA, female BALB/c mice, DLin-MC3-DMA = 100
Description: LUC-mRNA-lipid nanoparticles containing 5 μg mRNA (see SEQ ID NO: 1 in the Patent Application Publication CN114380724A for the corresponding nucleotide sequence of LUC-mRNA) were injected via tail intravenous injection in 6-8 week old female BALB/c mice, prepared as in Example 19. 100 μg of D-Luciferin Potassium Salt was injected via tail intravenous injection into the mice at specific time points and assayed using the PerkinElmer Small Animal Imaging System. Fluc is commonly used in mammalian cell cultures to measure gene expression and cell viability, and it emits biological fluorescent light in the presence of the substrate […]. The basic characteristics of the mRNA used include ARCA cap structure, polyA tail length of 120 nt, and complete substitution of pseudouridine.
The effect of delivering luciferase mRNA using more cationic lipids were validated according to the methods of Example 20 and Example 21.

[3] = Particle size, PDI and zeta potential of mRNA-loaded lipid nanoparticles (Malvern Zetasizer nano); type: physicochemical
Description: as §1, §2, §3

BALB/c mice [4] = assay: In vivo EPO protein expression after tail i.v. injection of EPO-mRNA LNP, serum ELISA; settings: 6 hours after tail i.v. injection of 20 μg EPO-mRNA-lipid nanoparticles, female Balb/c mice
Description: In the example, the effects of in vivo transfection of erythropoietin (EPO) by various cationic liposomes were compared. Nanoparticles were prepared in the same manner as in Example 20, and the nucleotide sequence corresponding to the EPO mRNA used is given in CN114380724B, SEQ ID NO:2. After preparation, 20 μg of EPO-mRNA-lipid nanoparticles were injected via tail intravenous injection in 6-8 week female Balb/c mice. 6 hours later the mice were subjected to blood sampling from the eye frame. After centrifugation to separate the serum, EPO protein expression was determined using ELISA. The basic characteristics of the mRNA used include ARCA cap structure, polyA tail length of 100-120 nt, and complete substitution of pseudouridine.

[5] = Encapsulation rate of mRNA-loaded lipid nanoparticles (Ribogreen kit); type: physicochemical; settings: Table 4 batch; EPO mRNA LNP prepared as Example 20
BALB/c mice [6] = assay: In vivo expression of luciferase mRNA delivered by LNP, lung nebulization; settings: LUC-mRNA LNP, 5 μg mRNA, compared with Lipid M and SM-102
Description: LUC-mRNA-lipid nanoparticles containing 5 μg mRNA were administrated via lung nebulization in 6-8 week old BALB/c mice, prepared as in Example 19. 100 μg of D-Luciferin Potassium Salt was injected via tail intravenous injection into the mice at specific time points and assayed using the PerkinElmer Small Animal Imaging System.

[7] = Particle size, PDI and zeta potential of mRNA-loaded lipid nanoparticles (Malvern Zetasizer nano); type: physicochemical; settings: Table 4 batch; EPO mRNA LNP prepared as Example 20
SD rats = assay: Abnormal toxicity of cationic lipid nanoparticles, tail i.v. injection, liver and kidney function; type: in vivo; settings: EPO mRNA LNP, 5 mg/kg tail intravenous injection, female SD rats
Description: The nanoparticles prepared in Example 27 were used in this experiment. The nanoparticles were injected via tail intravenous injection at a dose of 5 mg/kg in female SD rats weighing 200-250 g. The […] in the control group were injected with a corresponding volume of normal saline. […] Blood samples were collected at 120 h after injection, and alanine transaminase (ALT), aspartate aminotransferase (AST), urea nitrogen (BUN), and serum creatinine (SCR) were measured using a fully automated biochemistry instrument as the evaluation indexes of hepatic and renal functions.

[8] = Table 1, Luciferase mRNA LNP, cationic lipid:DSPC:cholesterol:DMG-PEG2000 50:10:38.5:1.5 molar
[9] = Table 3 batch, luciferase mRNA LNP prepared as Example 20

Row | Structure (SMILES) | Encapsulation rate (%) [1, 8] | Encapsulation rate (%) [1, 9] | relative fluorescence intensity (%) (BALB/c mice [2]) | PDI [3, 8] | Particle size (nm) [3, 8] | Zeta potential (mV) [3, 8] | PDI [3, 9] | Particle size (nm) [3, 9] | EPO concentration (BALB/c mice [4]) | Encapsulation rate (%) [5] | fluorescent levels of mRNA expression (FIG. 2) (BALB/c mice [6]) | PDI [7] | Particle size (nm) [7] | death after injection (time) (SD rats)
1 | CCCCCCCCOCC(C)C(=O)OCCCCCN(CCO)CCCCCCCC(=O)OC(CCCCCCCC)CCCCCCCC (stereo not shown) [Compound 7] | 96.1% | 96.8% | 754 ± 32% | 0.17 | 78.9 nm | −3.77 mV | 0.15 | 82.9 nm | 4.21e+07 pg/mL | 97.8% | superior to Lipid M and SM-102 | 0.09 | 88.8 nm | 
2 | CCCCC/C=C\C/C=C\CCCCCCCCC(CCCCCCCC/C=C\C/C=C\CCCCC)OC(=O)CCCN(C)C [DLin-MC3-DMA, reference compound] | 87.6% |  | 100% | 0.19 | 102.3 nm | −0.03 mV | 0.16 | 101.5 nm | 4.37e+06 pg/mL | 90.1% |  | 0.19 | 97.6 nm | ≤ 18 h
